{"source": "patent US9994812B2", "about": "“Systems and method for engineering muscle tissue” (UNIVERSITY OF WASHINGTON THROUGH ITS CENTER FOR …, priority 2012, dated 2018)", "type_in_all_cases": "cell-based, human", "key": {"[1]": {"system": "cardiomyocytes derived from healthy, and diseased hiPSC cells", "experiment": "Drug testing on ANP, action potential profile", "settings": "addition of Verapamil"}, "[2]": {"system": "paced hiPSC-derived cardiomyocytes monolayer", "experiment": "Optical mapping of conduction velocity vectors and spatial activation map", "settings": "40 μM vs 0 μM"}, "[3]": {"system": "hESC-derived cardiomyocyte cultures", "experiment": "Action potential time course traces with 1 Hz pacing on the nanotextured substrate", "settings": "0, 20 and 40 μM, 4 seconds", "protocol": "Representative action potential time course traces for 4 seconds in the presence of 1 Hz pacing in the presence of carboxelone, a GAP junction inhibitor at 0 μM (FIG. 19A), 20 μM (FIG. 19B), and 40 μM (FIG. 19C) are shown."}, "[4]": {"system": "hES-CM monolayers", "experiment": "Action potential profile of monolayers on the ANP polymer substrate"}, "[5]": {"system": "hESC-derived cardiomyocytes (hESC-CMs)", "experiment": "High throughput cardiotoxicity profiling, live/dead imaging (Calcein-AM / EtBr)", "settings": "doxorubicin, 24 hrs", "protocol": "FIGS. 16A-16B show high throughput cardiotoxicity profiling. To test the capacity of the ANP and system to identify cardiotoxic drugs, hESC-derived cardiomyocytes (hESC-CMs) were treated with doxorubicin for 24 hrs and then imaged using the high-throughput Applied Precision DeltaVision system."}, "[6]": {"system": "control IMR90 cells (IMR90 hiPSC-derived cardiomyocytes)", "experiment": "Sarcomere organization on nanotextured platforms, control cells", "settings": "addition of isoproterenol", "excerpt": "(§1) FIG. 34A-34D show nanotextured platforms facilitate maturation of hiPSC-derived cardiomyocytes allowing them to be used as effective disease models for drug testing against cardiomyopathies, and as in vitro cardiac disease models. […] Since nanotextures allow physiological organization of sarcomeres, it serves as a disease model to test the effect of a drug on a diseased cardiomyocyte."}, "[7]": {"system": "MHY7 mutated iPSC-derived CMs", "experiment": "Sarcomere organization on nanotextured platforms, disease model", "settings": "addition of isoproterenol", "excerpt": "as §1"}}}
{"smiles": "COc1ccc(CCN(C)CCCC(C#N)(c2ccc(OC)c(OC)c2)C(C)C)cc1OC", "note": "(stereo not drawn) [Verapamil]", "values": [{"measurement": "AP profile", "setting": "[1]", "result": "causes distortions in AP profile"}]}
{"smiles": "CC1(C)[C@@H](OC(=O)CCC(=O)O)CC[C@]2(C)[C@H]3C(=O)C=C4[C@@H]5C[C@@](C)(C(=O)O)CC[C@]5(C)CC[C@@]4(C)[C@]3(C)CC[C@@H]12", "note": "[carboxelone]", "values": [{"measurement": "conduction velocity vectors", "setting": "[2]", "result": "decrease in conduction across the tissue"}, {"measurement": "spatial activation map of electrical activity", "setting": "[2]", "result": "decrease in electrical activity of the monolayer"}, {"measurement": "effect on action potential time course traces", "setting": "[3]", "result": "dose dependent"}]}
{"smiles": "COc1cc(N)c(Cl)cc1C(=O)NC1CCN(CCCOc2ccc(F)cc2)CC1OC", "note": "(stereo not drawn) [cisapride]", "values": [{"measurement": "AP profile", "setting": "[4]; K+ channel inhibitor on hES-CM monolayers", "result": "distortions in AP profile"}, {"measurement": "prolongation of action potential", "setting": "[4]; addition of cisapride for 2 minutes", "result": "prolongation of action potential in a significant manner"}]}
{"smiles": "COc1cccc2c1C(=O)c1c(O)c3c(c(O)c1C2=O)C[C@@](O)(C(=O)CO)C[C@@H]3O[C@H]1C[C@H](N)[C@H](O)[C@H](C)O1", "note": "[doxorubicin]", "values": [{"measurement": "percentage of dead hESC-CMs", "setting": "[5]", "result": "statistically significant increase"}]}
{"smiles": "CC(C)NCC(O)c1ccc(O)c(O)c1", "note": "(stereo not drawn) [isoproterenol]", "values": [{"measurement": "sarcomeric organization", "setting": "[6]", "result": "does not result in loss of sarcmeric organization"}, {"measurement": "sarcomere organization", "setting": "[7]", "result": "results in loss of sarcomere organization"}]}
